From patent publication US9610285B2, “Compositions for controlling food intake and uses therefor” (UNIVERSITY OF FLORIDA RESEARCH FOUNDATION, INCORPORATED, priority 2011, dated 2017)
Marks after values point to notes of the source that are not given here.

Legend:
Format in all cases: in vivo, rat
rats = test: Binge eating rats, palatable food and chow intake (Example 1, FIGS. 1-5); details: drug alone, i.p., figure legends
Description: Baclofen (at 1.0 and 1.8 mg/kg, administered i.p.)
Baclofen+naltrexone (mixed low and mixed high)
1. Binge Sugar (10% sucrose solution, w/v)
2. Binge Fat (35% oil emulsion, w/v)
3. Binge Sugar/Fat (10% sucrose, 35% oil emulsion, w/v)
Groups of animals (rats) were maintained on their diets for 3 weeks to establish stable binge eating behavior. After this period of time, the rats were administered three days of daily i.p. injections of saline (to acclimate to the injection procedure), and sugar/chow intake was measured after the first hour of access and then hourly for the next 3 hours, as well as at the end of the 12-h access period. After this three-day period, rats were given baclofen+naloxone, and measurements taken as described above. Other dosage amounts of baclofen and naloxone were tested, as were the effects of these compounds alone (with measurements being performed as described above). Vehicle injections were performed between the various tests in order to allow for suitable clearance of compounds from the animals. […] Thus, the treatment appears ideally suited for food addicts, hedonic overeaters and changes food choice but not appetite.

Male Sprague-Dawley rats [1] = test: Palatable food intake following drug injections in binge-eating rats (Example 2); details: for Effect on palatable food (fat) intake, in words / Effect on palatable food (sugar) intake, in words / Effect on palatable food (sugar-fat) intake, in words: one-way ANOVA over saline, low and high dose
From the text: (§1) Male Sprague-Dawley rats, 250-300 g at the onset of the experiment, were obtained from Taconic Farms (Germantown, N.Y., USA). Rats were housed individually on a 12-h reversed light/dark cycle and given 1 wk to acclimate before diet training began.
(§2) The rats were divided into groups (n=10/group) matched for body weight and assigned to one of the following dietary conditions: (1) Binge Sugar, (2) Binge Fat or (3) Binge Sugar-Fat. All rats received palatable diets and standard rodent chow (LabDiet #5001, PMI Nutrition International, Richmond, Ind., USA; 10% fat, 20% protein, 70% carbohydrate, 3.02 kcal/g) for 12 h/day, starting 4 h after the onset of the dark cycle. Water was available ad libitum.
(§3) All palatable foods were mixed in the laboratory. The Binge Sugar group had access to a 10% (w/v) sucrose solution (Domino® Granulated Pure Cane Sugar, dissolved in tap water, 0.4 kcal/mL), the Binge Fat group had access to a 35% (w/v) fat emulsion (3.1 kcal/mL) and the Binge Sugar-Fat group had access to a 10% (w/v) sugar solution and 35% (w/v) fat emulsion (3.5 kcal/mL). Both emulsions were made with Wesson® Pure Vegetable Oil in tap water and 0.6% (w/v) Emplex, a commercially available emulsifier (American Ingredients Company, Kansas City, Mo., USA). Palatable food intakes were recorded daily. Chow intake was recorded weekly. Body weights were taken at the beginning and end of the 21-day diet period.
(§4) After 21 days on these diets, drug testing began. During testing, diet regimens were maintained. Approximately 3.5 h into the dark cycle, animals were weighed and intraperitoneal (i.p.) injections of drug were given (according to the schedule below). 30 min later (4 h into the dark cycle) palatable food and chow were made available to the rats. For the first 3 days, rats were acclimated to handling and daily vehicle injections (0.9% saline, Hospira, Lake Forest, Ill., USA, i.p. 1 mL/kg). For days 4-16 of drug testing, either vehicle or drug was alternatively administered, starting with drug on day 4. […] Intake of palatable food and chow was measured hourly after injection for 4 h and again at the end of the 12-h access period.
(§5) Palatable food and standard chow intakes following saline injections between days 4-16 were averaged. All data were analyzed using one-way ANOVAs with post hoc Multiple Comparisons, when appropriate. In Tables 4-7, values having the same letter superscript are statistically different from one another.

Male Sprague-Dawley rats [2] = test: Standard chow intake following drug injections in binge-eating rats (Example 2); details: for Effect on standard chow intake, in words: one-way ANOVA over saline, low and high dose
From the text: as §1, §2, §3, §4, §5

Male Sprague-Dawley rats [3] = test: Total caloric intake following drug injections in binge-eating rats (Example 2); details: for Effect on total caloric intake, in words: one-way ANOVA over saline, low and high dose
From the text: as §1, §2, §3, §4, §5

[4] = Binge Fat group, 1 h, high dose (naltrexone 1.0 mg/kg, baclofen 1.8 mg/kg, or both, i.p.)
[5] = Binge Fat group, 1 h, low dose (naltrexone 0.1 mg/kg, baclofen 1.0 mg/kg, or both, i.p.)
[6] = Binge Fat group, 12 h, high dose (naltrexone 1.0 mg/kg, baclofen 1.8 mg/kg, or both, i.p.)
[7] = Binge Fat group, 12 h, low dose (naltrexone 0.1 mg/kg, baclofen 1.0 mg/kg, or both, i.p.)
[8] = Binge Sugar group, 1 h, high dose (naltrexone 1.0 mg/kg, baclofen 1.8 mg/kg, or both, i.p.)
[9] = Binge Sugar group, 1 h, low dose (naltrexone 0.1 mg/kg, baclofen 1.0 mg/kg, or both, i.p.)
[10] = Binge Sugar group, 12 h, high dose (naltrexone 1.0 mg/kg, baclofen 1.8 mg/kg, or both, i.p.)
[11] = Binge Sugar group, 12 h, low dose (naltrexone 0.1 mg/kg, baclofen 1.0 mg/kg, or both, i.p.)
[12] = Binge Sugar-Fat group, 1 h, high dose (naltrexone 1.0 mg/kg, baclofen 1.8 mg/kg, or both, i.p.)
[13] = Binge Sugar-Fat group, 1 h, low dose (naltrexone 0.1 mg/kg, baclofen 1.0 mg/kg, or both, i.p.)
[14] = Binge Sugar-Fat group, 12 h, high dose (naltrexone 1.0 mg/kg, baclofen 1.8 mg/kg, or both, i.p.)
[15] = Binge Sugar-Fat group, 12 h, low dose (naltrexone 0.1 mg/kg, baclofen 1.0 mg/kg, or both, i.p.)

NC[C@H](CC(=O)O)c1ccc(Cl)cc1 [Baclofen, R-baclofen]
Effect on intake of oil-containing palatable foods (rats; oil containing groups (Binge Fat, Binge Sugar/Fat)): reduces intake
Effect on binge eating of sugar (rats; sugar-binging rats): no effect
1-H Palatable Food Intake (Kcal) (Male Sprague-Dawley rats [1]; [4]): 6.5 ± 2.0^c,d Kcal
Palatable food intake as a percent of intake after saline injections, 1-H Intake (%) (Male Sprague-Dawley rats [1]; [4]): 38%
1-H Palatable Food Intake (Kcal) (Male Sprague-Dawley rats [1]; [5]): 17.9 ± 2.4^d Kcal
Palatable food intake as a percent of intake after saline injections, 1-H Intake (%) (Male Sprague-Dawley rats [1]; [5]): 106%
Effect on palatable food (fat) intake, in words (Male Sprague-Dawley rats [1]; Binge Fat group, 1 h): decreased
12-H Palatable Food Intake (Kcal) (Male Sprague-Dawley rats [1]; [6]): 32.6 ± 4.9^e,f Kcal
Palatable food intake as a percent of intake after saline injections, 12-H Intake (%) (Male Sprague-Dawley rats [1]; [6]): 56%
12-H Palatable Food Intake (Kcal) (Male Sprague-Dawley rats [1]; [7]): 54.5 ± 4.5^f Kcal
Palatable food intake as a percent of intake after saline injections, 12-H Intake (%) (Male Sprague-Dawley rats [1]; [7]): 93%
Effect on palatable food (fat) intake, in words (Male Sprague-Dawley rats [1]; Binge Fat group, 12 h): decreased
1-H Palatable Food Intake (Male Sprague-Dawley rats [1]; [8]): 2.7 ± 0.5 kcal
Palatable food intake as a percent of intake after saline injections, 1-H Intake (%) (Male Sprague-Dawley rats [1]; [8]): 96%
1-H Palatable Food Intake (Male Sprague-Dawley rats [1]; [9]): 3.6 ± 0.8 kcal
Palatable food intake as a percent of intake after saline injections, 1-H Intake (%) (Male Sprague-Dawley rats [1]; [9]): 131%
Effect on palatable food (sugar) intake, in words (Male Sprague-Dawley rats [1]; Binge Sugar group, 1 h): no effect
12-H Palatable Food Intake (Kcal) (Male Sprague-Dawley rats [1]; [10]): 11.4 ± 2.4^ Kcal
Palatable food intake as a percent of intake after saline injections, 12-H Intake (%) (Male Sprague-Dawley rats [1]; [10]): 90%
12-H Palatable Food Intake (Male Sprague-Dawley rats [1]; [11]): 11.3 ± 2.5 kcal
Palatable food intake as a percent of intake after saline injections, 12-H Intake (%) (Male Sprague-Dawley rats [1]; [11]): 88%
Effect on palatable food (sugar) intake, in words (Male Sprague-Dawley rats [1]; Binge Sugar group, 12 h): no effect
1-H Palatable Food Intake (Kcal) (Male Sprague-Dawley rats [1]; [12]): 8.6 ± 1.6^j,k Kcal
Palatable food intake as a percent of intake after saline injections, 1-H Intake (%) (Male Sprague-Dawley rats [1]; [12]): 37%
1-H Palatable Food Intake (Kcal) (Male Sprague-Dawley rats [1]; [13]): 23.5 ± 3.9^j Kcal
Palatable food intake as a percent of intake after saline injections, 1-H Intake (%) (Male Sprague-Dawley rats [1]; [13]): 100%
Effect on palatable food (sugar-fat) intake, in words (Male Sprague-Dawley rats [1]; Binge Sugar-Fat group, 1 h): significantly decreased
12-H Palatable Food Intake (Kcal) (Male Sprague-Dawley rats [1]; [14]): 57.4 ± 4.1^p Kcal
Palatable food intake as a percent of intake after saline injections, 12-H Intake (%) (Male Sprague-Dawley rats [1]; [14]): 75%
12-H Palatable Food Intake (Male Sprague-Dawley rats [1]; [15]): 64.9 ± 6.6 kcal
Palatable food intake as a percent of intake after saline injections, 12-H Intake (%) (Male Sprague-Dawley rats [1]; [15]): 85%
Effect on palatable food (sugar-fat) intake, in words (Male Sprague-Dawley rats [1]; Binge Sugar-Fat group, 12 h): suppressed intake
1-H Chow Intake (Male Sprague-Dawley rats [2]; [4]): 10.6 ± 1.0 kcal
1-H Chow Intake (Male Sprague-Dawley rats [2]; [5]): 12.2 ± 1.7 kcal
12-H Chow Intake (Male Sprague-Dawley rats [2]; [6]): 35.0 ± 5.0 kcal
12-H Chow Intake (Male Sprague-Dawley rats [2]; [7]): 34.1 ± 3.3 kcal
1-H Chow Intake (Male Sprague-Dawley rats [2]; [8]): 19.3 ± 3.4 kcal
1-H Chow Intake (Male Sprague-Dawley rats [2]; [9]): 23.0 ± 1.5 kcal
12-H Chow Intake (Male Sprague-Dawley rats [2]; [10]): 62.5 ± 3.8 kcal
12-H Chow Intake (Kcal) (Male Sprague-Dawley rats [2]; [11]): 73.5 ± 4.5^c Kcal
1-H Chow Intake (Kcal) (Male Sprague-Dawley rats [2]; [12]): 6.3 ± 1.0^i Kcal
1-H Chow Intake (Kcal) (Male Sprague-Dawley rats [2]; [13]): 11.3 ± 1.7^i Kcal
Effect on standard chow intake, in words (Male Sprague-Dawley rats [2]; Binge Sugar-Fat group, 1 h): less chow intake at the high dose compared to the low dose
12-H Chow Intake (Male Sprague-Dawley rats [2]; [14]): 24.1 ± 3.1 kcal
12-H Chow Intake (Male Sprague-Dawley rats [2]; [15]): 24.6 ± 2.2 kcal
Effect on standard chow intake, in words (Male Sprague-Dawley rats [2]; Fat group, 1 h): no effect
Effect on standard chow intake, in words (Male Sprague-Dawley rats [2]; Fat group, 12 h): no effect
Effect on standard chow intake, in words (Male Sprague-Dawley rats [2]; Sugar group, 1 h): no effect
Effect on standard chow intake, in words (Male Sprague-Dawley rats [2]; Sugar group, 12 h): stimulated chow intake
1-H Total Caloric Intake (Kcal) (Male Sprague-Dawley rats [3]; [4]): 17.0 ± 3.0^e,f Kcal
1-H Total Caloric Intake (Kcal) (Male Sprague-Dawley rats [3]; [5]): 30.1 ± 4.1^f Kcal
12-H Total Caloric Intake (Kcal) (Male Sprague-Dawley rats [3]; [6]): 67.7 ± 9.9^g Kcal
12-H Total Caloric Intake (Male Sprague-Dawley rats [3]; [7]): 88.6 ± 7.8 kcal
1-H Total Caloric Intake (Male Sprague-Dawley rats [3]; [8]): 21.9 ± 4.4 kcal
1-H Total Caloric Intake (Male Sprague-Dawley rats [3]; [9]): 26.7 ± 2.3 kcal
12-H Total Caloric Intake (Male Sprague-Dawley rats [3]; [10]): 74.0 ± 6.3 kcal
12-H Total Caloric Intake (Male Sprague-Dawley rats [3]; [11]): 84.8 ± 7.0 kcal
1-H Total Caloric Intake (Kcal) (Male Sprague-Dawley rats [3]; [12]): 15.0 ± 2.6^k,m Kcal
1-H Total Caloric Intake (Kcal) (Male Sprague-Dawley rats [3]; [13]): 34.8 ± 5.6^m Kcal
12-H Total Caloric Intake (Male Sprague-Dawley rats [3]; [14]): 81.4 ± 7.3 kcal
12-H Total Caloric Intake (Male Sprague-Dawley rats [3]; [15]): 89.5 ± 8.8 kcal
Effect on total caloric intake, in words (Male Sprague-Dawley rats [3]; Fat group, 1 h): significantly reduced
Effect on total caloric intake, in words (Male Sprague-Dawley rats [3]; Fat group, 12 h): significantly reduced
Effect on total caloric intake, in words (Male Sprague-Dawley rats [3]; Sugar group, 1 h): no effect
Effect on total caloric intake, in words (Male Sprague-Dawley rats [3]; Sugar group, 12 h): no effect
Effect on total caloric intake, in words (Male Sprague-Dawley rats [3]; Sugar-Fat group, 1 h): reduced
Effect on total caloric intake, in words (Male Sprague-Dawley rats [3]; Sugar-Fat group, 12 h): not apparent
